Test results from US11673869B2, “4-oxazolidinone antimicrobial agents” (NORTH CAROLINA STATE UNIVERSITY, priority 2016, dated 2023).
In brackets after ≈: the same amount, converted by molar mass.

What was measured:
[1] = tested on: S. aureus; test: Broth microdilution MIC determination, S. aureus; assay type: cell-based, Staphylococcus aureus; settings: minimum inhibitory concentration, recorded after 16 h, unit assumed
[2] = tested on: MRSA (ATCC 33591) methicillin-resistant Staphylococcus aureus; test: Broth microdilution MIC determination, MRSA; assay type: cell-based; settings: minimum inhibitory concentration, MRSA ATCC 33591, Mueller-Hinton broth, 37° C., recorded after 16 h; unit assumed
Description: (§1) Broth microdilution protocol for minimum inhibition concentration (MIC) determination. Fresh Mueller-Hinton broth (MHB) ˜3 ml, was inoculated (5×10^5 CFU mL^−1) with MRSA (ATCC 33591) methicillin-resistant Staphylococcus aureus. The resulting bacterial suspension was aliquoted (1 mL) into culture tubes and test compound (10 mM DMSO stock solution) was added to reach the final concentration of the interest. Bacteria not treated with the antimicrobial compound served as the control. Rows 2-12 of a 96-well microtiter plate were filled with remaining bacterial subcultures. The samples containing test compound were aliquoted (200 μL) into the first row wells of the microtiter plate (2 wells per compound). Row 1 wells were mixed 6-8 times and 100 μL was transferred down to row 2. Row 2 wells were mixed 6-8 times, followed by a 100 μL transfer from row 2 down to row 3. The rest of the rows of the plate were serially diluted in similar fashion. The plate was covered with sealing tape for 96-well plates (ThermoFisher) and incubated under stationary conditions at 37° C. A duplicate of the plate was prepared.
(§2) MIC values for vancomycin, linezolid, and tetracycline are included in Table 1 for purposes of comparison.

[3] = tested on: A. baumannii; test: Broth microdilution MIC determination, A. baumannii; assay type: cell-based, Acinetobacter baumannii; settings: minimum inhibitory concentration, recorded after 16 h, unit assumed
Description: [The procedure below names another organism; the source lists this organism under the same test.] as §1, §2

| Structure (SMILES) | MIC S. aureus [1] [µg/mL] | MIC MRSA [2] [µg/mL] | MIC A. baumannii [3] [µg/mL] |
| --- | --- | --- | --- |
| CC(C)[C@@H]1O/C(=C/C(=O)Cc2ccc(Br)cc2)NC1=O [Compound 24, (S,E)-2-(3-(4-bromophenyl)-2-oxopropylidene)-5-isopropyloxazolidin-4-one] | 1 (≈ 2.96 µM) | 0.5 (≈ 1.48 µM) | – |
| CC(=O)/C=C1\NC(=O)[C@H](C)O1 [Compound 20, (S,E)-5-methyl-2-(2-oxopropylidene)oxazolidin-4-one] | > 128 | > 128 | – |
| CCCCCCCCCC(=O)/C=C1\NC(=O)[C@H](c2ccccc2)O1 [Compound 15, (S,E)-2-(2-oxoundecylidene)-5-phenyloxazolidin-4-one] | 2 (≈ 6.07 µM) | 1 (≈ 3.04 µM) | > 128 |
| CCCCCCCCCC(=O)/C=C1\NC(=O)[C@H]([C@@H](C)CC)O1 [Compound 10, (S,E)-5-((S)-sec-butyl)-2-(2-oxoundecylidene)oxazolidin-4-one] | 0.5 (≈ 1.62 µM) | 0.0675 (≈ 0.218 µM) | > 128 |
| CCCCCCCCCC(=O)/C=C1\NC(=O)[C@H](C)O1 [Compound 14, (S,E)-5-Methyl-2-(2-oxoundecylidene)oxazolidin-4-one] | 1 (≈ 3.74 µM) | 0.8 (≈ 2.99 µM) | – |
| COC(=O)CCCC(=O)/C=C1\NC(=O)[C@H](C(C)C)O1 [Compound 18, methyl (S,E)-6-(5-isopropyl-4-oxooxazolidin-2-ylidene)-5-oxohexanoate] | – | 32 (≈ 119 µM) | – |
| CCCCCCCCCC(=O)/C=C1\NC(=O)[C@H](C(C)C)O1 [Compound 11, (S,E)-5-isopropyl-2-(2-oxoundecylidene)oxazolidin-4-one] | 0.5 (≈ 1.69 µM) | 0.0338 (≈ 0.114 µM) | > 64 |
| CCCC[C@@H]1O/C(=C/C(=O)CCC)NC1=O [Compound 5, (S,E)-5-Butyl-2-(2-oxopentylidene)oxazolidin-4-one] | 16 (≈ 71 µM) | 16 (≈ 71 µM) | > 50 |
| CCCCCCCCCCCCCCCC(=O)/C=C1\NC(=O)[C@H](CCCC)O1 [Compound 7, (S,E)-5-Butyl-2-(2-oxoheptadecylidene)oxazolidin-4-one] | 128 (≈ 325 µM) | 16 (≈ 40.6 µM) | – |
| CN[C@H](CC(C)C)C(=O)N[C@H]1C(=O)N[C@@H](CC(N)=O)C(=O)N[C@H]2C(=O)N[C@H]3C(=O)N[C@H](C(=O)N[C@H](C(=O)O)c4cc(O)cc(O)c4-c4cc3ccc4O)[C@H](O)c3ccc(c(Cl)c3)Oc3cc2cc(c3O[C@@H]2O[C@H](CO)[C@@H](O)[C@H](O)[C@H]2O[C@H]2C[C@](C)(N)[C@H](O)[C@H](C)O2)Oc2ccc(cc2Cl)[C@H]1O [vancomycin, reference compound] | 1 (≈ 0.69 µM) | 1 (≈ 0.69 µM) | > 100 |
| CC(C)[C@@H]1O/C(=C/C(=O)Cc2ccc(-c3ccccc3)cc2)NC1=O [Compound 23, (S,E)-2-(3-([1,1′-biphenyl]-4-yl)-2-oxopropylidene)-5-isopropyloxazolidin-4-one] | 0.25 (≈ 0.745 µM) | 0.125 (≈ 0.373 µM) | – |
| CCCCCCC/C(C)=C/C(=O)/C=C1\NC(=O)[C@H](CCCC)O1 [Compound 1, (S)-Lipoxazolidinone A] | 1 (≈ 3.11 µM) | 0.5 (≈ 1.56 µM) | > 50 |
| CCCCCCCCCC(=O)/C=C1\NC(=O)CO1 [Compound 13, (E)-2-(2-Oxoundecylidene)oxazolidin-4-one] | 4 (≈ 15.8 µM) | 2 (≈ 7.89 µM) | – |
| CCCCCCC/C=C/C(=O)/C=C1\NC(=O)[C@H](CCCC)O1 [Compound 3, (S,E)-5-Butyl-2-((E)-2-oxoundec-3-en-1-ylidene)oxazolidin-4-one] | 0.5 (≈ 1.63 µM) | 0.125 (≈ 0.407 µM) | > 50 |
| CCCCCCCCCC(=O)/C=C1\NC(=O)[C@H](C(C)(C)C)O1 [Compound 21, (S,E)-5-(tert-butyl)-2-(2-oxoundecylidene)oxazolidin-4-one] | 0.5 (≈ 1.62 µM) | 0.0675 (≈ 0.218 µM) | – |
| CCCCCCCCCC(=O)/C=C1\NC(=O)[C@H](CCCC)O1 [Compound 4, (S,E)-5-Butyl-2-(2-oxoundecylidene)oxazolidin-4-one] | 2 (≈ 6.46 µM) | 0.25 (≈ 0.808 µM) | – |
| CCCCCCCCCC(=O)/C=C1\NC(=O)[C@H](CC(C)C)O1 [Compound 9, (S,E)-5-isobutyl-2-(2-oxoundecylidene)oxazolidin-4-one] | 0.5 (≈ 1.62 µM) | 0.0675 (≈ 0.218 µM) | > 128 |
| CC(=O)NC[C@H]1CN(c2ccc(N3CCOCC3)c(F)c2)C(=O)O1 [linezolid, reference compound] | 0.5 (≈ 1.48 µM) | 1 (≈ 2.96 µM) | > 100 |
| CN(C)[C@@H]1C(O)=C(C(N)=O)C(=O)[C@@]2(O)C(O)=C3C(=O)c4c(O)cccc4[C@@](C)(O)[C@H]3C[C@@H]12 [tetracycline, reference compound] | 0.25 (≈ 0.563 µM) | – | 2 (≈ 4.5 µM) |
| CC(C)[C@@H]1O/C(=C/C(=O)C(c2ccccc2)c2ccccc2)NC1=O [Compound 17, (S,E)-5-isopropyl-2-(2-oxo-3,3-diphenylpropylidene)oxazolidin-4-one] | – | 0.5 (≈ 1.49 µM) | – |
| CCCC[C@@H]1O/C(=C/C(C)=O)NC1=O [Compound 6, (S,E)-5-Butyl-2-(2-oxopropylidene)oxazolidin-4-one] | 128 (≈ 649 µM) | > 128 | – |
| CCCCCCCCCC(=O)/C=C1\NC(=O)[C@H](CC)O1 [Compound 22, (S,E)-5-ethyl-2-(2-oxoundecylidene)oxazolidin-4-one] | 2 (≈ 7.11 µM) | 1 (≈ 3.55 µM) | – |
| CCCCCCC/C(C)=C/C(=O)/C=C1\NC(=O)[C@@H](CCCC)O1 [Compound 2, (R)-Lipoxazolidinone A] | 4 (≈ 12.4 µM) | 1 (≈ 3.11 µM) | – |
| CCCCCCCCCC(=O)/C=C1\NC(=O)[C@H](Cc2ccccc2)O1 [Compound 12, (S,E)-5-benzyl-2-(2-oxoundecylidene)oxazolidin-4-one] | 4 (≈ 11.6 µM) | 0.5 (≈ 1.46 µM) | – |
| C#CCCCCC(=O)/C=C1\NC(=O)[C@H](C(C)C)O1 [Compound 19, (S,E)-5-isopropyl-2-(2-oxooct-7-yn-1-ylidene)oxazolidin-4-one] | – | 16 (≈ 64.2 µM) | – |
| CC(C)[C@@H]1O/C(=C/C(=O)Cc2ccccc2)NC1=O [Compound 16, (S,E)-5-isopropyl-2-(2-oxo-3-phenylpropylidene)oxazolidin-4-one] | – | 2 (≈ 7.71 µM) | – |
| CCCCCCCCCC(=O)/C=C1\NC(=S)[C@H](CCCC)O1 [Compound 8, (S,E)-1-(5-butyl-4-thioxooxazolidin-2-ylidene)undecan-2-one] | 128 (≈ 393 µM) | 64 (≈ 197 µM) | – |
